# According to US6737383B1, “Herbicidal oxadiazolidines” (priority 1999, dated 2004):
# Key:
# [1] = test system: bedstraw; assay: Test B pre/postemergence bedstraw; type: in vivo, Galium aparine
# In short: (§1)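 Test chemicals in a non-phytotoxic solvent mixture with surfactant were sprayed preemergence onto planted seeds and postemergence onto plants 2 to 18 cm tall (1- to 4-leaf stage). After twelve to sixteen days in a greenhouse, injury was visually rated against untreated controls from 0 (no effect) to 10 (complete control).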
# [2] = test system: surinam grass; assay: Test B pre/postemergence surinam grass; type: in vivo, Brachiaria decumbens
# In short: as §1
# [3] = test system: wild oat; assay: Test B pre/postemergence wild oat; type: in vivo, Avena fatua
# In short: as §1
# [4] = test system: purple nutsedge; assay: Test B pre/postemergence purple nutsedge; type: in vivo, Cyperus rotundus
# In short: as §1
# [5] = test system: bamyardgrass; assay: Test B flood test barnyardgrass; type: in vivo, Echinochloa crus-galli
# In short: (§2)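 Plants were grown to the 2-leaf stage before treatment with test chemical, then held in a greenhouse for twelve to sixteen days. Injury was visually rated against untreated controls on a 0–10 scale, where 0 is no effect and 10 is complete control.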
# [6] = test system: morningglory; assay: Test B pre/postemergence morningglory; type: in vivo, Ipomoea hederacea
# In short: as §1
# [7] = test system: sugar beet; assay: Test B pre/postemergence sugar beet; type: in vivo, Beta vulgaris
# In short: as §1
# [8] = test system: rice; assay: Test B flood test rice; type: in vivo, Oryza sativa
# In short: as §2
# [9] = test system: rape; assay: Test B pre/postemergence rape; type: in vivo, Brassica napus
# In short: as §1
# [10] = test system: pigweed; assay: Test B pre/postemergence pigweed; type: in vivo, Amaranthus retroflexus
# In short: as §1
# [11] = test system: velvetleaf; assay: Test B pre/postemergence velvetleaf; type: in vivo, Abutilon theophrasti
# In short: as §1
# [12] = test system: soybean; assay: Test B pre/postemergence soybean; type: in vivo, Glycine max
# In short: as §1
# [13] = test system: corn; assay: Test B pre/postemergence corn; type: in vivo, Zea mays
# In short: as §1
# [14] = test system: blackgrass; assay: Test B pre/postemergence blackgrass; type: in vivo, Alopecurus myosuroides
# In short: as §1
# [15] = test system: smallflower flatsedge; assay: Test B flood test smallflower flatsedge; type: in vivo, Cyperus difformis
# In short: as §2
# [16] = test system: cocklebur; assay: Test B pre/postemergence cocklebur; type: in vivo, Xanthium strumarium
# In short: as §1
# [17] = Postemergence, Rate 31 g/ha, visual rating, scale 0 to 10 (0 no effect, 10 complete control)
# [18] = Preemergence, Rate 250 g/ha, scale of 0 to 10 where 0 is no effect and 10 is complete control
# [19] = Rate 62 g/ha, Postemergence, scale 0 to 10 (0 no effect, 10 complete control)
# [20] = Rate 125 g/ha, Postemergence, scale of 0 to 10 where 0 is no effect and 10 is complete control
# [21] = Rate 250 g/ha, Postemergence, scale of 0 to 10 where 0 is no effect and 10 is complete control
# [22] = Preemergence, Rate 31 g/ha, visual rating, scale 0 to 10 (0 no effect, 10 complete control)
# [23] = Preemergence, Rate 62 g/ha, scale of 0 to 10 where 0 is no effect and 10 is complete control
# [24] = Rate 31 g/ha, Pre-emergence section (flood test species), scale 0 to 10
# [25] = Rate 62 g/ha, headed Pre-emergence (flood test species), scale 0 to 10 (0 no effect, 10 complete control)
# [26] = Rate 125 g/ha, Pre-emergence, flood test species, scale 0 to 10 where 0 is no effect and 10 is complete control
# [27] = Rate 250 g/ha, Pre-emergence, flood-test species, scale 0 to 10, 0 is no effect, 10 is complete control
compound,measurement,setting,value
Cc1cccc(C)c1-n1c(=O)on(C(=O)N(c2ccc(Cl)cc2Cl)C2CCC2)c1=O [Compound 318],Bedstraw plant response rating,[1]; [17],0
same,Bedstraw plant response rating (0 to 10 scale),"[1]; Preemergence, Rate 125 g/ha",0
same,Bedstraw plant response rating,[1]; [18],0
same,Bedstraw plant response rating,[1]; [19],0
same,Bedstraw plant response rating,[1]; [20],0
same,"Plant response rating, Bedstraw",[1]; [21],0
same,B. signalgrass plant response rating,[2]; [17],0
same,B. signalgrass plant response rating,[2]; [22],0
same,B. signalgrass plant response rating,[2]; [23],0
same,"B. signalgrass plant response rating (0 to 10 scale, 0 is no effect, 10 is complete control)","[2]; Preemergence, Rate 125 g/ha",0
same,B. signalgrass plant response rating,[2]; [18],0
same,B. signalgrass plant response rating,[2]; [19],0
same,B. signalgrass plant response rating,[2]; [20],0
same,"Plant response rating, B. signalgrass",[2]; [21],0
same,Wild oats plant response rating,[3]; [17],0
same,Wild oats plant response rating,[3]; [23],0
same,Wild oats plant response rating (0 to 10 scale),"[3]; Preemergence, Rate 125 g/ha",0
same,Wild oats plant response rating,[3]; [18],0
same,Wild oats plant response rating,[3]; [19],0
same,Wild oats plant response rating,[3]; [20],0
same,"Plant response rating, Wild oats",[3]; [21],0
same,Nutsedge plant response rating,[4]; [17],0
same,Nutsedge plant response rating,[4]; [23],0
same,Nutsedge plant response rating (0 to 10 scale),"[4]; Preemergence, Rate 125 g/ha",0
same,Nutsedge plant response rating,[4]; [19],0
same,Nutsedge plant response rating,[4]; [20],0
same,"Plant response rating, Nutsedge",[4]; [21],0
same,Barnyardgrass plant response rating,[5]; [24],0
same,Barnyardgrass plant response rating,[5]; [25],0
same,Barnyardgrass plant response rating,[5]; [26],0
same,Barnyardgrass plant response rating,[5]; [27],0
same,Morningglory plant response rating,[6]; [17],0
same,Morningglory plant response rating,[6]; [23],0
same,Morningglory plant response rating (0 to 10 scale),"[6]; Preemergence, Rate 125 g/ha",0
same,Morningglory plant response rating,[6]; [18],0
same,Morningglory plant response rating,[6]; [19],0
same,Morningglory plant response rating,[6]; [20],0
same,"Plant response rating, Morningglory",[6]; [21],3
same,Sugarbeets plant response rating,[7]; [17],0
same,Sugarbeets plant response rating,[7]; [23],0
same,Sugarbeets plant response rating (0 to 10 scale),"[7]; Preemergence, Rate 125 g/ha",0
same,Sugarbeets plant response rating,[7]; [18],0
same,Sugarbeets plant response rating,[7]; [19],0
same,Sugarbeets plant response rating,[7]; [20],0
same,"Plant response rating, Sugarbeets",[7]; [21],0
same,Rice plant response rating,[8]; [24],0
same,Rice plant response rating,[8]; [25],0
same,Rice plant response rating,[8]; [26],0
same,Rice plant response rating,[8]; [27],0
same,Rape plant response rating,[9]; [17],0
same,Rape plant response rating,[9]; [23],0
same,Rape plant response rating (0 to 10 scale),"[9]; Preemergence, Rate 125 g/ha",0
same,Rape plant response rating,[9]; [18],0
same,Rape plant response rating,[9]; [19],0
same,Rape plant response rating,[9]; [20],0
same,"Plant response rating, Rape",[9]; [21],0
same,Redroot pigweed plant response rating,[10]; [17],0
same,Redroot pigweed plant response rating,[10]; [23],0
same,Redroot pigweed plant response rating (0 to 10 scale),"[10]; Preemergence, Rate 125 g/ha",0
same,Redroot pigweed plant response rating,[10]; [18],0
same,Redroot pigweed plant response rating,[10]; [19],0
same,Redroot pigweed plant response rating,[10]; [20],0
same,"Plant response rating, Redroot pigweed",[10]; [21],0
same,Velvetleaf plant response rating,[11]; [17],0
same,Velvetleaf plant response rating,[11]; [23],0
same,Velvetleaf plant response rating (0 to 10 scale),"[11]; Preemergence, Rate 125 g/ha",0
same,Velvetleaf plant response rating,[11]; [18],0
same,Velvetleaf plant response rating,[11]; [19],0
same,Velvetleaf plant response rating,[11]; [20],0
same,"Plant response rating, Velvetleaf",[11]; [21],0
same,Soybean plant response rating,[12]; [17],0
same,Soybean plant response rating,[12]; [23],0
same,Soybean plant response rating (0 to 10 scale),"[12]; Preemergence, Rate 125 g/ha",0
same,Soybean plant response rating,[12]; [18],0
same,Soybean plant response rating,[12]; [19],0
same,Soybean plant response rating,[12]; [20],0
same,"Plant response rating, Soybean",[12]; [21],1
same,Corn plant response rating,[13]; [17],0
same,Corn plant response rating,[13]; [22],0
same,Corn plant response rating,[13]; [23],0
same,Corn plant response rating (0 to 10 scale),"[13]; Preemergence, Rate 125 g/ha",0
same,Corn plant response rating,[13]; [18],0
same,Corn plant response rating,[13]; [19],0
same,Corn plant response rating,[13]; [20],0
same,"Plant response rating, Corn",[13]; [21],0
same,Blackgrass plant response rating,[14]; [17],0
same,Blackgrass plant response rating,[14]; [22],0
same,Blackgrass plant response rating,[14]; [23],0
same,Blackgrass plant response rating (0 to 10 scale),"[14]; Preemergence, Rate 125 g/ha",0
same,Blackgrass plant response rating,[14]; [18],0
same,Blackgrass plant response rating,[14]; [19],0
same,Blackgrass plant response rating,[14]; [20],0
same,"Plant response rating, Blackgrass",[14]; [21],0
same,S. Flatsedge plant response rating,[15]; [24],0
same,S. Flatsedge plant response rating,[15]; [25],0
same,S. Flatsedge plant response rating,[15]; [26],0
same,S. Flatsedge plant response rating,[15]; [27],0
same,Cocklebur plant response rating,[16]; [17],0
same,Cocklebur plant response rating,[16]; [22],0
same,Cocklebur plant response rating,[16]; [23],0
same,Cocklebur plant response rating (0 to 10 scale),"[16]; Preemergence, Rate 125 g/ha",0
same,Cocklebur plant response rating,[16]; [18],0
same,Cocklebur plant response rating,[16]; [19],0
same,Cocklebur plant response rating,[16]; [20],0
same,"Plant response rating, Cocklebur",[16]; [21],5
